Experimental findings from patent US20260176302A1, “SARS-CoV-2 Binding Polypeptide” (Leyden Laboratories B.V., priority 2022, published 2026) are described below.

The test system of this experiment is SARS-CoV-2 B.1.351 variant. In kind it is in vivo, Mouse (Mus musculus).

With IINPRGDGTRYAQKFQG [SEQ ID NO: 082], the “survival time vs control group (log-rank test)” value ([…], control median survival 7 days) is reported as “significant improvement in survival time”. Under “mouse, in vivo”, the “clinical signs (score 0-4)” value is reported as “No clinical signs” and the “survival proportion at day 21” value was found to be 100%. The “change in bodyweight (AUC) / weight loss vs control group” value (mouse, in vivo, listed as test polypeptide) is reported as “significant reduction in weight loss”.
